Where no end group is shown, it is not given here.
Test system: hMSCs
Assay: Loss of stemness: STRO-1 expression by immunostaining
Type: cell-based, human
Settings: Table 6, previously reported peptides in solution, 400 ng/mL
Description: The cells were first fixed for 20 min with 4% paraformaldehyde/PBS at 4° C. After fixation, the cells were permeabilized in PBS containing 1% Triton X-100 for 15 min. Runx2, Osterix, Stro-1, Vinculin, Phalloidin, Osteopontin, Sox2, Sox9 antibodies were visualized by treating the cells with 1% (v/v) specific monoclonal antibodies for 1 hour at 37° C. Then the samples were incubated with Alexa Fluor® 568 or 647 (F(ab′)2 fragment of IgG(H+L)) during 30 min at room temperature. The cell nuclei were counterstained in 20 ng/mL DAPI for 10 min at room temperature.
For this type of quantification the freeware image analysis ImageJ® software was used. The raw image was first converted to an 8-bit file, and then the unsharp mask feature was used (settings 1:0.2) to remove the image background (rolling ball radius 10). After smoothing, the resulting image, which appears similar to the original photomicrograph but with minimal background, was then converted to a binary image by setting a threshold. Threshold values were determined empirically by selecting a setting, which gave the most accurate binary image for a subset of randomly selected photomicrographs. The cell area was determined by manual delineation on raw fluorescent images. Total contact area and mean contact area per cell were calculated by “analyse particules” in ImageJ®. A minimum of 30 cells per condition were analyzed. Stro-1, CD-34+, and CD-105 expressions were determined using this procedure.
hMSCs were cultured on conventional cell culture plastic plates with or without the presence in the cell culture media of different GFR-binding compounds as described herein (SEQ ID NO: 50 to 88) in solution. […] This was probed by Stro-1 immunostaining after cell fixation as described in the Methods section. The quantification of Stro-1 positive contact numbers and areas was performed as described in the Methods section. A minimum of 30 cells per condition were analyzed. Stro-1 positive marrow cells are multipotential and capable of differentiating into multiple mesenchymal lineages including stromal cells with a phenotype resembling vascular smooth muscle cells that can support hematopoiesis, adipocytes, osteoblasts, and chondrocytes.
Using the method detailed in the description, the RMSD of 57 previously reported peptide sequences have been determined (Table 6) and correlated with the expression of STRO-1 in solution. […] One should note that it is commonly admitted that the expression of STRO-1 in a cell is indicative of a cell that is in a substantially non-differentiated state and the decrease of its expression of at least about 20% is indicative of a cell that has started a process of differentiation but which may not result in the differentiation of the cell. A decrease of more than 50% would be indicative of the presence of a significant shift towards a differentiated state. A decrease of more than 70% would be indicative of the presence of a very important shift towards a differentiated state. A sustained decrease (e.g. for at least 96 h) of more than 50% or 70% would be indicative of the presence of an even more important shift towards a differentiated state.
Likewise, using the method detailed in the description, the RMSD of 75 GFR-binding peptide sequence representatives of the invention have been determined (Table 8) and correlated with the expression of STRO-1. SEQ ID NO: 1 to 49 were tested in combination with a bioactive carrier as defined above in the Examples Section (i.e. titanium, ceramics, collagen, etc. . . . ), whereas SEQ ID NO: 2242 to 2267 were tested in solution.

Row | Substance | STRO-1 expression (%)
1 | 2205 (KIPKPSSAPTELSAISMLYC; Peptide reported in WO2009151288, SEQ ID NO:5) [compound 2205] | 80%
2 | 2165 (LMDLARMPSCLRGERAVPQDTTGYFTWSSNITPLNFIF; Peptide reported in US20110300149, SEQ ID NO:32) [compound 2165] | 92%
3 | 2191 (ANINKDRDNVPAATSSLSKAYNP; Peptide reported in WO2013040142, SEQ ID NO:2326359) [compound 2191] | 92%
4 | 2202 (CPKPSSAPTELSAISMLL; Peptide reported in WO2009151288, SEQ ID NO:3) [compound 2202] | 79%
5 | 2200 (FDSRVLKSAISFKENIIF; Peptide reported in WO2013040142, SEQ ID NO:2935795) [compound 2200] | 89%
6 | 2189 (SSVPAVCSATSATGPYSTATNTVWFDVYATTVY; Peptide reported in EP1687419, SEQ ID NO:46) [compound 2189] | 91%
7 | 2171 (SHQSAGDSIKSPARHSAPTHQEPLPD; Peptide reported in WO2013040142, SEQ ID NO:3137100) [compound 2171] | 91%
8 | 2158 (VEQLSNMVVK; Peptide reported in US20130259924, SEQ ID NO:21667) [compound 2158] | 98%
9 | 2182 (VPTELSPISLLYLDEFEKVTLKNYQDMVVDG; Peptide reported in US20120244575, SEQ ID NO:4324) [compound 2182] | 87%
10 | 2214 (KPCCAPTELSAISVLYFDDSSNVILKKYRNMVVRACGCR; Peptide reported in US20050250936, SEQ ID NO:122) [compound 2214] | 83%
11 | 2160 (PIIYYVGRNVRVEQLSNMVVRRA; Comparative sequence) [compound 2160] | 98%
12 | 2169 (IKSPARHSAPTHQEPLP; Peptide reported in WO2013040142, SEQ ID NO:3157977) [compound 2169] | 98%
13 | 2208 (AETLHTLGLSAPVIESAISDAI; Peptide reported in WO2013040142, SEQ ID NO:629725) [compound 2208] | 93%
14 | 2179 (TLXPIVSSXNPSPISFRXIKILLHDLEVVPFPKSRVR; Peptide reported in US20040031072, SEQ ID NO:272830; MOD_RES (3), (9), (18): Xaa is A) [compound 2179] | 84%
15 | 2164 (HIRSTTSSYVSLKSNITNRTIQTPTYSYT; Peptide reported in US20120216318, SEQ ID NO:347659) [compound 2164] | 98%
16 | 2197 (LSLLAPPEPVWNHETSYGSDCHVPTNVNAISKMIDKSNHQTG; Peptide reported in US20140130203, SEQ ID NO:119179) [compound 2197] | 93%
17 | 2178 (SPISILVVPELDASLPEKRPSLDGFEALLVYNAPKA; Peptide reported in US20120246748, SEQ ID NO:119912) [compound 2178] | 82%
18 | 2210 (SRVLPIVVQGYVPVQDTKFLGIYYVIGPIIARVILSSSSAISSLNKS; Peptide reported in US20040031072, SEQ ID NO:188005) [compound 2210] | 84%
19 | 2163 (TPTYSRPVQKAELTR; Peptide reported in US20130332133, SEQ ID NO:16645) [compound 2163] | 97%

Same assay, conditions: Table 8, SEQ ID NO: 1 to 49 tested in combination with a bioactive carrier (titanium, ceramics, collagen, etc.)

Row | Substance | STRO-1 expression (%)
20 | 34 (GTPGPRNVQCRPTQVQLSAISTLYLEIVRKKPLKNYQTLEDH; GFR-binding peptide) [compound 34] | 18%
21 | 7 (CTVPKPXXAPTQLSPISVLYKDDSSNVILKYHYNMVVRAXGXH; GFR-binding peptide; MOD_RES (7), (8), (40), (42): Xaa is C or S) [compound 7] | 18%
22 | 15 (CASSAVSQELSAISMLYLGGGLKNYQDM; GFR-binding peptide) [compound 15] | 21%
23 | 21 (CGGGSSVPTELSAISTLYLDDYDKVILKKYRNM; GFR-binding peptide) [compound 21] | 14%
24 | 49 (CTVPKPXXAPTQLSPISILYIDAANNVVYKQYEDMVVRA; GFR-binding peptide; MOD_RES (7), (8): Xaa is C or S) [compound 49] | 18%
25 | 44 (CAAPASSSVPARLSPISILYIDAANNVVYKQYEDMVVE; not fully specified; ends and bridges not checked) [compound 44] | 27%
26 | 19 (CPKPSSAPTQLSAISTLYLDDSSNVILKNYQMIVVRA; GFR-binding peptide) [compound 19] | 20%
27 | 5 (CASASPXXVSQDLNAISVLYFIGKTPKILKKYRMIVKSXKXS; GFR-binding peptide; MOD_RES (7), (8), (39), (41): Xaa is C or S) [compound 5] | 26%
28 | 23 (GTPGPKVPKPSSAPTQLSAISTLYLDEYDKVVLKNYQNMAVR; not fully specified; ends and bridges not checked) [compound 23] | 17%
29 | 31 (GTPGPPKPSSAPTQLNAISMLYFGGGGGLKKYRDMQHN; GFR-binding peptide) [compound 31] | 31%
30 | 48 (CVPQRLSPISILYIDAANNVVYKQYE; GFR-binding peptide) [compound 48] | 18%
31 | 41 (CGIPEPSSVPEKMSSLSILFFDENKNVVLKVYPNM; not fully specified; ends and bridges not checked) [compound 41] | 22%

Same assay, conditions: Table 8, SEQ ID NO: 2242 to 2267 tested in solution

Row | Substance | STRO-1 expression (%)
32 | 2247 (VPTSSSPISTLYIDKGVVTYLKYHYSSVAE; GFR-binding peptide) [compound 2247] | 20%
33 | 2267 (ASASPSSVSQDLRSVKVAKVIGKTPKIKEVQVMIVKSSKSS; GFR-binding peptide) [compound 2267] | 34%
34 | 2243 (VPEAASSLSMLFFEIVRKKPIFLKVYPAATVE; GFR-binding peptide) [compound 2243] | 19%
35 | 2264 (KIPKASSVPQELEPLPIVYYDENEKVVEQLSNDMVRSGSGSR; GFR-binding peptide) [compound 2264] | 24%
36 | 2259 (TQVAARPVQTRKIDDMGVPTKKATVAAEDH; GFR-binding peptide) [compound 2259] | 23%
37 | 2258 (SRVLLRPVQMRKIDKGVVTYKKATVLLEEH; GFR-binding peptide) [compound 2258] | 21%
38 | 2260 (VPQRLEPLTILYYDAANNVVEQLSNDMVKS; GFR-binding peptide) [compound 2260] | 23%

Reference: patent US20220267394A1, “COMPOUNDS FOR INDUCING TISSUE FORMATION AND USES THEREOF” (HISTIDE AG, priority 2015, published 2022)
